This passage reports GI50 and TGI results from PubChem BioAssay (NCI).

Some test systems named below: NCI-H460 lung; MCF7 breast; SF-295 CNS; SF-539 CNS; BT-549 breast; OVCAR-8 ovarian; NCI-H226 lung; NCI-H522 lung; HCT-116 colon; MALME-3M melanoma.
Holding throughout (test): NCI-60 cell line screen, 48 h

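Each compound was tested at five concentrations against cells in 96-well plates for 48 hours. GI50 marks 50% less growth. At the TGI there is no net growth.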

Turning to `COC(=O)C1=C2C3=C(C(=O)c4ccccc4C3=O)N(Cc3ccccc3)C2(OC(C)=O)C=CC1=O` (configuration not stated), the GI50 was 5.93 µM with NCI-H460 lung; 3.73 µM with MCF7 breast; 6.3 µM in the assay with SF-295 CNS; 5.9 µM with SF-539 CNS; 6.9 µM in the assay with BT-549 breast; 22.4 µM in the assay on OVCAR-8 ovarian. Besides, the GI50 is 11.6 µM in the assay on NCI-H226 lung, 5.56 µM in the assay with NCI-H522 lung, 6.25 µM with HCT-116 colon and 10.8 µM in the assay with MALME-3M melanoma. The TGI was more than 100 µM in the assay on NCI-H460 lung; more than 100 µM with MCF7 breast; 29.3 µM with SF-295 CNS; 23.1 µM with SF-539 CNS; 34.8 µM with BT-549 breast; 83 µM with OVCAR-8 ovarian. Further, the TGI with NCI-H226 lung is 32.6 µM; in the assay on NCI-H522 lung, more than 100 µM; with HCT-116 colon it was 24.8 µM; in the assay on MALME-3M melanoma it was 26.5 µM.

Regarding `S=c1cn[nH]c2ccc(Br)cc12`, the TGI in the assay with NCI-H460 lung, in the assay with MCF7 breast, in the assay on SF-295 CNS, in the assay on SF-539 CNS, in the assay with BT-549 breast and in the assay on OVCAR-8 ovarian was more than 100 µM in each case. The TGI in the assay with NCI-H226 lung is more than 100 µM; in the assay on NCI-H522 lung it was 91.6 µM; in the assay with HCT-116 colon, more than 100 µM; in the assay on MALME-3M melanoma, 79 µM.

Consider `COc1cc(C2=Nc3c/c(=C\c4c(O)[nH]c5ccc(Cl)cc45)ccc3=N2)cc(OC)c1OC`, for which the GI50 in the assay on NCI-H460 lung was 2.7 µM; in the assay with MCF7 breast it was 1.43 µM; with SF-295 CNS it was 11.7 µM; in the assay on SF-539 CNS it was 4 µM; with BT-549 breast, 2.51 µM; in the assay with OVCAR-8 ovarian, 1.95 µM. Further, the GI50 with NCI-H226 lung is 10.3 µM; in the assay with NCI-H522 lung, 3.17 µM; with HCT-116 colon, 1.56 µM; with MALME-3M melanoma it was 1.79 µM. Moreover, the TGI with NCI-H460 lung was found to be 8.65 µM; with MCF7 breast, 3.56 µM; with SF-295 CNS it was 29.7 µM; in the assay on SF-539 CNS, 15.9 µM; in the assay with BT-549 breast, 9.94 µM; in the assay with OVCAR-8 ovarian, 5.24 µM. Besides, the TGI in the assay on NCI-H226 lung was 29.7 µM; in the assay with NCI-H522 lung, 10.7 µM; in the assay with HCT-116 colon, 3.54 µM; in the assay on MALME-3M melanoma it was 3.71 µM.

Take `CCOc1ccc(/C=N/Nc2cc(C)nc3ccc(Cl)cc23)cc1`: the GI50 with NCI-H460 lung is 2.06 µM; with MCF7 breast it was 1.67 µM; in the assay on SF-295 CNS, 1.76 µM; in the assay on SF-539 CNS it was 1.97 µM; with BT-549 breast it was 1.61 µM; with OVCAR-8 ovarian, 2.34 µM. The GI50 with NCI-H226 lung was 1.85 µM; in the assay with NCI-H522 lung it was 1.73 µM; with MALME-3M melanoma, 2.02 µM. Moreover, the TGI in the assay with NCI-H460 lung is 4.27 µM; with MCF7 breast, 3.32 µM; with SF-295 CNS, 3.24 µM; with SF-539 CNS, 3.4 µM; in the assay on BT-549 breast it was 3.15 µM; in the assay on OVCAR-8 ovarian, 5.19 µM. Besides, the TGI in the assay on NCI-H226 lung worked out at 3.62 µM; in the assay with NCI-H522 lung it was 3.29 µM; with MALME-3M melanoma it was 3.6 µM.

Turning to `Clc1ccc(N/N=C/c2ccccn2)nc1`, the GI50 in the assay on NCI-H460 lung is 0.379 µM; in the assay with MCF7 breast, 0.338 µM; in the assay with SF-295 CNS it was 0.452 µM; in the assay with SF-539 CNS, 0.329 µM; in the assay with BT-549 breast, 0.554 µM; with OVCAR-8 ovarian, 0.425 µM. For the same compound, the results for the GI50 in the assay with NCI-H226 lung, in the assay on NCI-H522 lung and in the assay on HCT-116 colon were 0.401 µM, 0.323 µM and 0.305 µM, respectively. Further, the TGI in the assay on NCI-H460 lung was more than 42.7 µM; with MCF7 breast it was more than 100 µM; in the assay with SF-295 CNS, more than 100 µM; in the assay with SF-539 CNS it was 2.46 µM; in the assay with BT-549 breast, more than 55 µM; with OVCAR-8 ovarian, more than 100 µM. In addition, the TGI with NCI-H226 lung was more than 100 µM; in the assay on NCI-H522 lung, 37.4 µM; with HCT-116 colon, more than 100 µM.

Turning to `C=CC[Se]C(=O)c1ccccc1OC(C)=O`, the GI50 with NCI-H460 lung is 0.36 µM; in the assay with MCF7 breast, 1.83 µM; in the assay with SF-295 CNS, 0.332 µM; in the assay on SF-539 CNS, 1.47 µM; in the assay on BT-549 breast, 1.66 µM; in the assay on OVCAR-8 ovarian it was 1.52 µM. Also, the GI50 was 2.62 µM in the assay with NCI-H226 lung, 1.93 µM with NCI-H522 lung and 1.66 µM in the assay with MALME-3M melanoma. For the same compound, the TGI was found to be 1.84 µM in the assay on NCI-H460 lung; 4.31 µM with MCF7 breast; 1.32 µM in the assay on SF-295 CNS; 2.8 µM in the assay with SF-539 CNS; 3.2 µM in the assay on BT-549 breast; 3.56 µM in the assay with OVCAR-8 ovarian. Moreover, the TGI in the assay with NCI-H226 lung was found to be 6.44 µM; in the assay on NCI-H522 lung, 4.62 µM; in the assay with MALME-3M melanoma, 3.38 µM.

Regarding `O=[n+]1cnn([O-])c2ccccc21`, the TGI in the assay with MCF7 breast is 44.4 µM; with SF-295 CNS, more than 100 µM; in the assay with SF-539 CNS, 55.7 µM; in the assay on BT-549 breast, 54.4 µM; in the assay with OVCAR-8 ovarian it was more than 100 µM; with NCI-H226 lung it was more than 100 µM. The TGI with NCI-H522 lung amounted to 45.2 µM; with HCT-116 colon, 36.9 µM; with MALME-3M melanoma it was 47.6 µM.

On to `O=C1C(=O)c2ccccc2C=C1[N+](=O)[O-]`, for which the TGI in the assay with NCI-H460 lung is more than 100 µM; in the assay with MCF7 breast, 78.9 µM; with SF-295 CNS, more than 100 µM; in the assay on SF-539 CNS it was more than 100 µM; in the assay on BT-549 breast it was more than 100 µM; with OVCAR-8 ovarian, more than 100 µM. Moreover, the TGI with NCI-H226 lung was more than 100 µM; with NCI-H522 lung it was more than 100 µM; in the assay with HCT-116 colon, 69.9 µM.

Consider `Nc1ccn(C2OC(CO[P+](=O)OC3C(CO[P+](=O)OC4C(CO[P+](=O)OC5C(CO[P+](=O)OC6C(CO[P+](=O)OC7C(CO[P+](=O)OC8C(CO[P+](=O)OC9C(CO[P+](=O)OC%10C(CO[P+](=O)OC%11C(CO)OC(n%12ccc(N)nc%12=O)C%11(F)F)OC(n%11ccc(N)nc%11=O)C%10(F)F)OC(n%10ccc(N)nc%10=O)C9(F)F)OC(n9ccc(N)nc9=O)C8(F)F)OC(n8ccc(N)nc8=O)C7(F)F)OC(n7ccc(N)nc7=O)C6(F)F)OC(n6ccc(N)nc6=O)C5(F)F)OC(n5ccc(N)nc5=O)C4(F)F)OC(n4ccc(N)nc4=O)C3(F)F)C(O)C2(F)F)c(=O)n1` (configuration not stated), for which the TGI in the assay with MCF7 breast, in the assay on SF-295 CNS, with NCI-H226 lung, in the assay on NCI-H522 lung, in the assay with HCT-116 colon and with MALME-3M melanoma was more than 100 µM throughout. Besides, the GI50 was 0.426 µM in the assay on BT-549 breast, 18.3 µM in the assay on NCI-H226 lung, 0.224 µM in the assay with NCI-H522 lung and 50.9 µM in the assay on MALME-3M melanoma.
